Laboratory results taken from ChEMBL document CHEMBL1153531, “1- or 3-(3-Amino-2-hydroxy-1-phenyl propyl)-1,3-dihydro-2H-benzimidazol-2-ones: potent, selective, and orally efficacious norepinephrine reuptake inhibitors” (J Med Chem, 2009).
Activity calls are given as the source filed them. The calls are words filed in the database; no cut-off is given here.

Experiments:
[1] = target: Sodium-dependent dopamine transporter (Homo sapiens) (UniProt Q01959); test: Inhibition of [3H]WIN-35428 binding to human recombinant DAT expressed in CHO cells by scintillation counting; type: cell-based
[2] = target: Sodium-dependent serotonin transporter (Homo sapiens) (UniProt P31645); settings: JAR
[3] = target: T1, Sodium-dependent noradrenaline transporter (Homo sapiens, UniProt P23975)
[4] = target: Sodium-dependent dopamine transporter (Homo sapiens) (UniProt Q01959); test: Inhibition of [3H]WIN-35428 binding to human recombinant DAT expressed in CHO cells at 10 uM by scintillation counting; type: cell-based
[5] = target: T1, Sodium-dependent noradrenaline transporter; test: biochemical
[6] = target: Sodium-dependent serotonin transporter (Homo sapiens) (UniProt P31645); test: Inhibition of [3H]hydroxytryptamine creatinine sulfate uptake at human SERT expressed in human JAR cells at 1 uM; type: cell-based
[7] = target: Sodium-dependent dopamine transporter (Homo sapiens) (UniProt Q01959); test: Inhibition of [3H]WIN-35428 binding to human recombinant DAT expressed in CHO cells at 1 uM by scintillation counting; type: cell-based
Homo sapiens = species on record: Homo sapiens; test: Selectivity […] human SERT to IC50 for human NET
[8] = Plasma clearance in Sprague-Dawley rat at 5 mg/kg, iv; type: ADME, organism-based; set-up: dose 5 mg/kg, route intravenous
[9] = AUC (0 to infinity) in Sprague-Dawley rat at 10 mg/kg, po; type: ADME, organism-based; set-up: time infinity, dose 10 mg/kg, route oral; settings: plasma
Rattus norvegicus [10] = test: Effect on temperature homeostasis in telemetric ovariectomy-induced thermoregulatory dysfunction Sprague-Dawley rat model assessed as maximum reduction in tail skin temperature at 3 mg/kg, po relative to baseline; type: functional
[11] = AUC (0 to infinity) in Sprague-Dawley rat at 5 mg/kg, iv; type: ADME, organism-based; set-up: time infinity, dose 5 mg/kg, route intravenous; settings: plasma
[12] = Terminal half life in Sprague-Dawley rat at 10 mg/kg, po; type: ADME, organism-based; set-up: dose 10 mg/kg, route oral; settings: in vivo, read-out: beta t1/2 (converted)
Rattus norvegicus [13] = test: Effect on temperature homeostasis in telemetric ovariectomy-induced thermoregulatory dysfunction Sprague-Dawley rat model assessed as mean reduction in tail skin temperature at 3 mg/kg, po relative to baseline; type: functional
CHO = test: Selectivity for human NET expressed in MDCK-Net6 cells over human DAT expressed in CHO cells; type: cell-based
[14] = Cmax in Sprague-Dawley rat 10 mg/kg, po within 2 hrs; type: ADME, organism-based; set-up: dose 10 mg/kg, route oral; settings: in vivo
[15] = Oral bioavailability in Sprague-Dawley rat at 10 mg/kg; type: ADME, organism-based; settings: in vivo
[16] = Tmax in Sprague-Dawley rat at 10 mg/kg, po; type: ADME, organism-based; set-up: dose 10 mg/kg, route oral; settings: in vivo
JAR = test: Selectivity for human NET expressed in MDCK-Net6 cells over human SERT expressed in human JAR cells; type: cell-based
Rattus norvegicus [17] = test: Effect on temperature homeostasis in telemetric ovariectomy-induced thermoregulatory dysfunction Sprague-Dawley rat model assessed as duration of tail skin temperature reduction at 3 mg/kg, po; type: functional
[18] = Terminal half life in Sprague-Dawley rat at 5 mg/kg, iv; type: ADME, organism-based; set-up: dose 5 mg/kg, route intravenous; settings: in vivo, read-out: beta t1/2 (converted)
Rattus norvegicus [19] = test: Antihyperalgesic in po dosed Sprague-Dawley rat spinal nerve ligation model of neuropathic pain assessed as complete hind paw withdrawal after 3 to 4 weeks post surgery by paw pressure technique analysis; type: functional, organism-based
Rattus norvegicus [20] = test: Analgesic activity in Sprague-Dawley rat acute analgesia model assessed as increase in nocifensive latency at 10 mg/kg, po after 5 hrs by hot plate assay; type: functional, organism-based; set-up: dose 10 mg/kg
Rattus norvegicus [21] = test: Analgesic activity in Sprague-Dawley rat acute analgesia model assessed as increase in nocifensive latency at 10 mg/kg, po after 3 hrs by hot plate assay; type: functional, organism-based; set-up: dose 10 mg/kg
Rattus norvegicus [22] = test: Analgesic activity in Sprague-Dawley rat acute analgesia model assessed as increase nocifensive latency at 10 mg/kg, po after 1 hr by hot plate assay; type: functional, organism-based; set-up: dose 10 mg/kg

T1 sequence (P23975 whole entry): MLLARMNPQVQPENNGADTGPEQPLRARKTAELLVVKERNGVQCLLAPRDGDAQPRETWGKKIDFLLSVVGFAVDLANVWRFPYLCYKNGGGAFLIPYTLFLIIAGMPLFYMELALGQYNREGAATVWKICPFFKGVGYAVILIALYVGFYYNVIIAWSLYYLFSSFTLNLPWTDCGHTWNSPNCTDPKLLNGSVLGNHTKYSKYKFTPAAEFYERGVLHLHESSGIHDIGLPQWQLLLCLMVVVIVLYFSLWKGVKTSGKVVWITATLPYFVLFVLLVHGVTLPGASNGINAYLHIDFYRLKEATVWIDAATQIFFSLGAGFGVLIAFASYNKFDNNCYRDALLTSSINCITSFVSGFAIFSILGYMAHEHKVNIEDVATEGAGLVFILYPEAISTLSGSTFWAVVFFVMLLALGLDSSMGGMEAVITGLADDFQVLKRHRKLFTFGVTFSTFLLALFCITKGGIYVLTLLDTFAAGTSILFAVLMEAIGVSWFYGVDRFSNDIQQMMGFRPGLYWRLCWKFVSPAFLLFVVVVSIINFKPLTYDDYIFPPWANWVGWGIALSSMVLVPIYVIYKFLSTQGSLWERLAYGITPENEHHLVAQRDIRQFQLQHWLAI
Sodium-dependent dopamine transporter (Homo sapiens), sequence (Q01959 whole entry): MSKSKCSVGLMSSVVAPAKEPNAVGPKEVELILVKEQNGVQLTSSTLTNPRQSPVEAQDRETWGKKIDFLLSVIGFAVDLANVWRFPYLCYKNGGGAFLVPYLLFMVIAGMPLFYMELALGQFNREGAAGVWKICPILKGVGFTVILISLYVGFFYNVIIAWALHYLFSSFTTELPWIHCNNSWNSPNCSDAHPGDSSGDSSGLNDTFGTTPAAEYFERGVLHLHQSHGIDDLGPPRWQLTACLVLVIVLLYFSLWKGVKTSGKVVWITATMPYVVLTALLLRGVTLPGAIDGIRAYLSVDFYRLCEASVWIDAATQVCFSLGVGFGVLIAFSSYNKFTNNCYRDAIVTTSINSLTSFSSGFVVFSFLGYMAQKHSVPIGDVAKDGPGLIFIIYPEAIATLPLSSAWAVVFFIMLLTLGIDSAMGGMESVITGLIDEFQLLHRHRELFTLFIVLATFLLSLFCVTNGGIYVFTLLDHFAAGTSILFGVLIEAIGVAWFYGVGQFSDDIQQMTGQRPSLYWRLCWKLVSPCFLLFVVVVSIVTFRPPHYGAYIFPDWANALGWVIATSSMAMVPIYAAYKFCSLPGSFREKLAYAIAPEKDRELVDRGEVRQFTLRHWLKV
Sodium-dependent serotonin transporter (Homo sapiens), sequence (P31645 whole entry, looked up): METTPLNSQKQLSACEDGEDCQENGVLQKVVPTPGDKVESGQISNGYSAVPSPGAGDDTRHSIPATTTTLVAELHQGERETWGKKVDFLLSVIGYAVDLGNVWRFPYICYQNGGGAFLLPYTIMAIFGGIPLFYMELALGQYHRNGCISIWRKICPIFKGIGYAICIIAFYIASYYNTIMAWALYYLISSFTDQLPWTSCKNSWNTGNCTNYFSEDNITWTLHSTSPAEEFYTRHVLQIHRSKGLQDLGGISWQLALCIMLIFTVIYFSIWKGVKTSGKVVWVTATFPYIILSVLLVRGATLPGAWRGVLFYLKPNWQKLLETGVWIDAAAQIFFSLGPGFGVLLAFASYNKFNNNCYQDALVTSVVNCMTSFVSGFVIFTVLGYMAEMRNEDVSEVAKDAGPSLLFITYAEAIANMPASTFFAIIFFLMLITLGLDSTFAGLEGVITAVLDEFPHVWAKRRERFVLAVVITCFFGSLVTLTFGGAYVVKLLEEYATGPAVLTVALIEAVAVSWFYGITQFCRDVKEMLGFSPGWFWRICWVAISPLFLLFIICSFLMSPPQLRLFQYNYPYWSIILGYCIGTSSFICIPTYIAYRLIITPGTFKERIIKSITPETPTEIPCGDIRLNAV

SMILES: CNC[C@@H](O)[C@H](c1ccccc1)n1ccc2ccccc21
- IC5 [1]: 358 nM
- IC5 [2]: 0.358 µM

SMILES: CNC[C@@H](O)[C@H](c1ccccc1)n1c(=O)n(C2CCC2)c2ccccc21
- IC50 [3]: 42.5 nM
- inhibition [4]: 6%
- IC50 [5]: 90 nM
- inhibition [6]: 5%

SMILES: CNC[C@@H](O)[C@H](c1cccc(F)c1)n1c(=O)n(-c2ccccc2)c2cccc(F)c21
- IC50 [3]: 91.9 nM
- inhibition [7]: 11%

SMILES: CNC[C@@H](O)[C@H](c1cccc(F)c1)n1c(=O)n(C(C)C)c2cccc(F)c21
- Selectivity ratio (Homo sapiens): > 900
- IC50 [3]: 6.9 nM
- clearance [8]: 24 mL/min/kg
- IC5 [1]: 6320 nM
- inhibition [4]: 27%
- AUC(0-inf) [9]: 7080 ng·h/mL
- IC5 [2]: 6.32 µM
- Activity (Rattus norvegicus [10]): 3.73 °C
- AUC(0-inf) [11]: 3650 ng·h/mL
- half-life [12]: 3.9 h
- Activity (Rattus norvegicus [13]): 2.44 °C
- Selectivity ratio (CHO): > 500
- Cmax [14]: 1120 ng/mL
- bioavailability [15]: 97%
- Tmax [16]: 0.5 h
- Selectivity ratio (JAR): > 500
- Time (Rattus norvegicus [17]): 6 h
- half-life [18]: 2.3 h
- IC50 [5]: 4.1 nM
- inhibition [6]: 19%

SMILES: CCNC[C@@H](O)[C@H](c1ccccc1)n1c(=O)n(C(C)C)c2ccc(F)cc21
- IC50 [3]: > 1000 nM

SMILES: CCn1c(=O)n([C@@H](c2ccccc2)[C@H](O)CNC)c2c(F)cccc21
- IC50 [3]: 13.8 nM
- inhibition [4]: 29%
- IC50 [5]: 11.4 nM
- inhibition [6]: -5%

SMILES: CCCn1c(=O)n([C@@H](c2ccccc2)[C@H](O)CNC)c2cc(F)ccc21
- IC50 [3]: 39.4 nM
- inhibition [4]: 16%
- IC5 [2]: 8.32 µM
- inhibition [6]: 44%

SMILES: CNC[C@@H](O)[C@H](c1ccccc1)n1c(=O)n(C)c2ccccc21
- IC50 [3]: 257 nM
- inhibition [4]: 14%
- inhibition [6]: 15%

SMILES: CCCn1c(=O)n([C@@H](c2ccccc2)[C@H](O)CNC)c2ccccc21
- IC50 [3]: 18.6 nM
- inhibition [4]: 6%
- inhibition [6]: 15%

SMILES: CCn1c(=O)n([C@@H](c2cccc(F)c2)[C@H](O)CNC)c2ccccc21
- Selectivity ratio (Homo sapiens): > 900
- IC50 [3]: 7.4 nM
- inhibition [4]: -2%
- IC5 [2]: > 10 µM
- Activity (Rattus norvegicus [10]): 2.62 °C
- Activity (Rattus norvegicus [19]): Dose-dependent effect
- Activity (Rattus norvegicus [13]): 2.03 °C
- Activity (Rattus norvegicus [20]): Active
- Selectivity ratio (CHO): > 500
- Selectivity ratio (JAR): > 500
- Time (Rattus norvegicus [17]): 5 h
- Activity (Rattus norvegicus [21]): Active
- Activity (Rattus norvegicus [22]): Active
- IC50 [5]: 6.4 nM
- inhibition [6]: 15%

SMILES: CNC[C@@H](O)[C@H](c1ccccc1)n1c(=O)n(C(C)C)c2cccc(F)c21
- Selectivity ratio (Homo sapiens): > 900
- IC50 [3]: 7.8 nM
- inhibition [4]: 12%
- IC5 [2]: > 10 µM
- Activity (Rattus norvegicus [10]): 2.09 °C
- Activity (Rattus norvegicus [13]): 1.61 °C
- Selectivity ratio (CHO): > 500
- Selectivity ratio (JAR): > 500
- Time (Rattus norvegicus [17]): 1 h
- inhibition [6]: 6%

SMILES: CNC[C@@H](O)[C@H](c1ccccc1)n1c(=O)n(C(C)(C)C)c2ccccc21
- IC50 [3]: 56 nM
- inhibition [7]: 3%
- inhibition [6]: 1%

SMILES: CCn1c(=O)n([C@@H](c2ccccc2)[C@H](O)CNC)c2cc(F)ccc21
- IC50 [3]: 36.7 nM
- inhibition [4]: 30%
- inhibition [6]: 32%

SMILES: CCn1c(=O)n([C@@H](c2cccc(F)c2)[C@H](O)CNC)c2c(F)cccc21
- Selectivity ratio (Homo sapiens): > 900
- IC50 [3]: 10.4 nM
- inhibition [4]: 11%
- IC5 [2]: > 10 µM
- Selectivity ratio (CHO): > 500
- Selectivity ratio (JAR): > 500
- IC50 [5]: 4.1 nM
- inhibition [6]: 8%

SMILES: CNC[C@@H](O)[C@H](c1ccccc1)n1c(=O)n(C(C)C)c2ccccc21
- IC50 [3]: 13.4 nM
- inhibition [4]: 19%
- IC50 [5]: 10.8 nM
- inhibition [6]: 19%

SMILES: CCOc1ccccc1O[C@@H](c1ccccc1)[C@@H]1CNCCO1
- IC5 [1]: > 10000 nM

SMILES: CNCC[C@@H](Oc1ccccc1C)c1ccccc1
- IC5 [1]: 48 nM

SMILES: CNC[C@@H](O)[C@H](c1ccccc1)n1c(=O)n(C2CCCC2)c2ccccc21
- IC50 [3]: 66.7 nM
- inhibition [4]: 20%
- IC5 [2]: 2.37 µM
- inhibition [6]: 46%

SMILES: CCn1c(=O)n([C@@H](c2ccccc2)[C@H](O)CNC)c2ccccc21
- IC50 [3]: 17.5 nM
- clearance [8]: 54 mL/min/kg
- AUC(0-inf) [9]: 1840 ng·h/mL
- Activity (Rattus norvegicus [10]): 1.82 °C
- AUC(0-inf) [11]: 1640 ng·h/mL
- half-life [12]: 3.4 h
- Activity (Rattus norvegicus [13]): 1.57 °C
- Cmax [14]: 306 ng/mL
- bioavailability [15]: 56%
- Tmax [16]: 1.1 h
- Time (Rattus norvegicus [17]): 3.5 h
- half-life [18]: 3.6 h
- IC50 [5]: 16.8 nM
- inhibition [6]: 4%
